Measurements from US8338441B2, “Inhibitors of human immunodeficiency virus replication” (priority 2009, dated 2012).

Each compound was assayed on HIV-1 NL4.3 strain (assay: C8166 HIV-1 Luciferase Assay (EC50)). Conditions: Human immunodeficiency virus 1, C8166, 72 h, read-out: Antiviral potency EC50.
Assay type: cell-based
Source text: C8166 HIV-1 Luciferase Assay (EC50)
C8166 cells are derived from a human T-lymphotrophic virus type 1 immortalized but nonexpressing line of cord blood lymphocytes (obtained from J. Sullivan and originally produced in the laboratory of R. Gallo, Virology 1983; 129: 51-64) and are highly permissive to HIV-1 infection. The pGL3 Basic LTR/TAR plasmid is made by introducing the HIV-1 HxB2 LTR sequence from nucleotide −138 to +80 (Sca1-HindIII) upstream of the luciferase gene in the pGL3 Basic Vector (a promoterless luciferase expression vector from Promega catalogue # E1751) with the gene for blasticidine resistance cloned in. The reporter cells are made by electroporating C8166 cells with pGL3 Basic LTR/TAR and selecting positive clones with blasticidine. Clone C8166-LTRIuc #A8-F5-G7 is selected by 3 consecutive rounds of limiting dilution under blasticidine selection. Cultures are maintained in complete media (consisting of: Roswell Park Memorial Institute medium (RPMI) 1640+10% FBS+10^−5 M β-mercaptoethanol+10 μg/ml gentamycin) with 5 μg/ml blasticidine, however, blasticidine selection is removed from the cells before performing the viral replication assay.
Luciferase Assay Protocol
Serial dilutions of HIV-1 inhibitor compounds are prepared in complete media from 10 mM DMSO stock solutions. Eleven serial dilutions of 2.5× are made at 8× desired final concentration in a 1 mL deep well titer plate (96 wells). The 12th well contains complete media with no inhibitor and serves as the positive control. All samples contain the same concentration of DMSO (≦0.1% DMSO). A 25 μL aliquot of inhibitor is added, to triplicate wells, of a 96 well tissue culture treated clear view black microtiter plate (Corning Costar catalogue # 3904). The total volume per well is 200 μL of media containing cells and inhibitor. The last row is reserved for uninfected C8166 LTRluc cells to serve as the background blank control and the first row is media alone.
C8166 LTRluc cells are counted and placed in a minimal volume of complete RPMI 1640 in a tissue culture flask (ex. 30×10^6 cells in 10 mL media/25 cm^2 flask). Cells are infected with HIV-1 or virus with variant integrase generated as described below at a […] (moi) of 0.005. Cells are incubated for 1.5 hours at 37° C. on a rotating rack in a 5% CO2 incubator and re-suspended in complete RPMI to give a final concentration of 25,000-cells/175 μL. 175 μL of cell mix is added to wells of a 96 well microtiter plate containing 25 μL 8× inhibitors. 25,000 uninfected C8166-LTRluc cells/well in 200 μL complete RPMI are added to the last row for background control. Cells are incubated at 37° C. in 5% CO2 incubator for 3 days.
50 μL Steady Glo (luciferase substrate T1/2=5 hours Promega catalogue # E2520) is added to each well of the 96 well plate. The relative light units (RLU) of luciferase is determined using the LUMIstar Galaxy luminometer (BMG LabTechnologies). Plates are read from the bottom for 2 seconds per well with a gain of 240.
The level of inhibition (% inhibition) of each well containing inhibitor is calculated as follows: […]
The calculated % inhibition values are used to determine EC50, slope factor (n) and maximum inhibition (Imax) by the non-linear regression routine NLIN procedure of SAS using the following equation: […]
Compound `Cc1nc(-c2nc3cc(Cl)ccc3[nH]2)c(C)c(-c2ccccc2Cl)c1[C@H](OC(C)(C)C)C(=O)O` [compound 1446] has an EC50 of 1.9 nM.
`Cc1nc(-c2nc3ccc(Cl)cc3[nH]2)c(C)c(-c2ccc(Br)cc2)c1[C@H](OC(C)(C)C)C(=O)O` [compound 1447] showed an EC50 of 0.38 nM.
`Cc1nc(-c2nc3ccccc3n2C)c(C)c(-c2ccc(Br)cc2)c1[C@H](OC(C)(C)C)C(=O)O` [compound 1448] showed an EC50 of 1.4 nM.
Compound `Cc1nc(-c2nc3ccccc3n2CC2CC2)c(C)c(-c2ccc(Cl)cc2)c1[C@H](OC(C)(C)C)C(=O)O` [compound 1449] has an EC50 of 1.8 nM.
`Cc1nc(-c2nc3ccccc3n2C2CC2)c(C)c(-c2ccc(Cl)cc2)c1[C@H](OC(C)(C)C)C(=O)O` [compound 1450] was tested, and the EC50 was 7.7 nM.
`Cc1nc(C(=O)NC2CCC(C)(C)CC2)c(C)c(-c2ccc(Cl)cc2F)c1[C@H](OC(C)(C)C)C(=O)O` [compound 1451] showed an EC50 of 1.7 nM.
With `Cc1nc(C(=O)NC2CCC3(CC2)CC3)c(C)c(-c2ccc(Cl)cc2F)c1[C@H](OC(C)(C)C)C(=O)O` [compound 1452] the EC50 was 5.7 nM.
`COc1cc(C(=O)Nc2nc(C)c([C@H](OC(C)(C)C)C(=O)O)c(-c3ccc(Cl)cc3F)c2C)nc2ccccc12` [compound 1453] was tested, and the EC50 was 2.1 nM.
Compound `Cc1nc(C(=O)N[C@H]2CC[C@H](C)CC2)c(C)c(-c2cccc(F)c2Cl)c1[C@H](OC(C)(C)C)C(=O)O` [compound 1454] has an EC50 of 3.7 nM.
For `Cc1nc(C(=O)N[C@H]2CC[C@H](C)CC2)c(C)c(-c2ccccc2Cl)c1[C@H](OC(C)(C)C)C(=O)O` [compound 1455], the EC50 was 4 nM.
Compound `Cc1nc(C(=O)N[C@H]2CC[C@H](C)CC2)c(C)c(-c2ccc(Br)cc2)c1[C@H](OC(C)(C)C)C(=O)O` [compound 1456] has an EC50 of 4.2 nM.
`Cc1nc(C(=O)NC2CCC(C)(C)CC2)c(C)c(-c2ccc(Br)cc2)c1[C@H](OC(C)(C)C)C(=O)O` [compound 1457] showed an EC50 of 4 nM.
`Cc1nc(C(=O)NC2CCC3(CC2)CC3)c(C)c(-c2ccc(Br)cc2)c1[C@H](OC(C)(C)C)C(=O)O` [compound 1458] showed an EC50 of 6.9 nM.
`Cc1nc(C(=O)N[C@H]2CC[C@H](C)CC2)c(C)c(-c2ccc3c(c2)SCCO3)c1[C@H](OC(C)(C)C)C(=O)O` [compound 1459] was tested, and the EC50 was 4 nM.
Compound `COc1cc(C(=O)Nc2nc(C)c([C@H](OC(C)(C)C)C(=O)O)c(-c3ccc(Cl)cc3)c2C)nc2ccccc12` [compound 1461] has an EC50 of 2.5 nM.
Work on `COc1cc(Cl)ccc1C(=O)Nc1nc(C)c([C@H](OC(C)(C)C)C(=O)O)c(-c2ccc(Cl)cc2)c1C` [compound 1462] yielded an EC50 of 1.2 nM.
`Cc1nc(NC(=O)c2oc3ccccc3c2C)c(C)c(-c2ccc(Cl)cc2)c1[C@H](OC(C)(C)C)C(=O)O` [compound 1463] gave an EC50 of 2.1 nM.
Compound `Cc1nc(NC(=O)[C@H]2CC[C@H](C)CC2)c(C)c(-c2ccc(Cl)cc2)c1[C@H](OC(C)(C)C)C(=O)O` [compound 1464] has an EC50 of 6.2 nM.
For `Cc1ccc(C(F)(F)F)c(C(=O)Nc2nc(C)c([C@H](OC(C)(C)C)C(=O)O)c(-c3ccc(Cl)cc3)c2C)c1` [compound 1465], the EC50 was 11 nM.
`Cc1nc(NC(=O)c2ccc(Cl)c(F)c2)c(C)c(-c2ccc(Cl)cc2)c1[C@H](OC(C)(C)C)C(=O)O` [compound 1466] showed an EC50 of 4.9 nM.
With `COc1nc(C)ccc1C(=O)Nc1nc(C)c([C@H](OC(C)(C)C)C(=O)O)c(-c2ccc(Cl)cc2)c1C` [compound 1467] the EC50 was 4.3 nM.
`Cc1nc(-c2nc3ccc(Cl)cn3c2C)c(C)c(-c2ccc(Cl)cc2)c1[C@H](OC(C)(C)C)C(=O)O` [compound 1469] gave an EC50 of 0.61 nM.
`Cc1nc(C(=O)N2Cc3ccccc3C2)c(C)c(-c2ccc(Cl)cc2)c1[C@H](OC(C)(C)C)C(=O)O` [compound 1471] showed an EC50 of 2.4 nM.
For `COCc1nc(-c2ccc(C)c(C)c2)c(C)c(-c2ccc(Cl)cc2)c1[C@H](OC(C)(C)C)C(=O)O` [compound 2003], the EC50 was 17 nM.
Compound `Cc1noc(C)c1-c1ccc(-c2nc(C)c([C@H](OC(C)(C)C)C(=O)O)c(-c3ccc(Cl)cc3)c2C#N)cc1` [compound 2005] has an EC50 of 19 nM.
In the case of `CCC(C)(C)O[C@H](C(=O)O)c1c(C)nc(C(=O)N[C@H]2CC[C@H](C)CC2)c(C)c1-c1ccc(Cl)cc1` [compound 3005], the EC50 is reported as 9.3 nM.
Work on `Cc1nc(C(=O)N[C@H]2CC[C@H](C)CC2)c(C)c(-c2ccc(Cl)cc2)c1[C@H](OC1(C)CCC1)C(=O)O` [compound 3009] yielded an EC50 of 24 nM.
With `Cc1c(-c2ccc3c(c2)CCCO3)c([C@H](OC(C)(C)C)C(=O)O)c(C)n2cc(CC(C)(C)C)nc12` [compound 4002] the EC50 was 73 nM.
`COC(=O)c1cnn2c(C)c([C@H](OC(C)(C)C)C(=O)O)c(-c3ccc4c(c3)CCCO4)c(C)c12` [compound 6001] showed an EC50 of 89 nM.
